Reference: patent US20130324522A1, “INSECT ODORANT RECEPTOR ANTAGONISTS” (THE ROCKEFELLER UNIVERSITY, priority 2010, published 2013)

Columns and labels:
Drosophila melanogaster = assay: Fly two-choice behavior assay; format: in vivo
Method: Male flies (Drosophila melanogaster) of the w^1118 genotype were “wet-starved” for 24 hours in plastic culture vials lacking food but supplemented with wet cotton plugs on the bottom. After the 24 hour fasting period before the assay, flies were placed into a two-choice behavior chamber. This two-choice chamber consists of one 15 cm Petri dish with two round holes (2.2 cm diameter) that were punched along the midline at an equal distance (2.9 cm) from the rim. Two small plastic vials were connected to the dish and plugged with rigid cotton plugs perforated with 1 mL pipette tips. The bottom of each trap vial was humidified with the same cotton plugs used to plug the vial by soaking the plug in deionized water for a few seconds until it was fully wetted. Each trap contained a small filter paper strip with 10 μL of either water or pure odor (3-methyl-thio-1-propanol). Flies could enter one of the two traps through a plastic pipette tip (1 mL) inserted into top of each vial. 10 μL of RU-14, or solvent (100% ethanol) or DEET was placed on small circular filter paper, and introduced into the pipette tips at the entrance. […] After 24 hours, flies were counted and a response was computed by calculating the percent of flies in each trap. Significance was assessed using the Mann-Whitney U-test. […]

Aedes aegypti = assay: Mosquito two-port olfactometer behavioral assay; format: in vivo; details: 3.5 mg dose; female mosquitoes, human hand odor and CO2, two-port olfactometer
Method: Female Aedes aegypti Orlando mosquitoes (8-11 days old) were used in this assay. Larvae were hatched from dried egg papers and were reared in pans with deionized water supplemented with two tablets of fish food “TetraMin®” from Tetra every day. Pupae were transferred to cages and maintained before and after eclosion at 25° C. and 70-80% humidity with a 12 hr light: 12 hr dark photocycle. Adults were fed a 10% corn syrup solution and were free to mate with each other. One day prior to the assay, females were separated and placed into starvation cartridges (each containing 20 mosquitoes) without any food or water. The cartridges were placed at 25° C. and 70-80% humidity overnight (>l4hr).
A two-port olfactometer, adapted from Gouck (Gouck, H. K. Host preferences of various strains of Aedes aegypti and Aedes simpsoni as determined by an olfactometer. Bull. World Health Org. 47:680-683, 1972) was used to assess the repellent characteristic of small compounds by measuring mosquito host-seeking preference to human odor with a compound or its solvent. […] After 8 minutes, the number of mosquitoes in the trapping chambers (“attracted”) and main compartment (“not-attracted”) was counted. Data were expressed as % attracted/% activated. Significance was assessed using the analysis of variance, ANOVA. […] Significance was assessed using the Mann-Whitney U-test. […]

SMILES	inhibition of host-seeking behavior (Aedes aegypti)	further results
Fc1cccc(Cl)c1Cn1ccnc1CN(CC1CCCC1)C1CC1 [RU-I4]	–	suppression of 3MTP attraction (Drosophila melanogaster; 3.5 mg dose): significant suppression
O=C(C1CCCC1)N(Cc1nccn1CCc1c(F)cccc1Cl)C1CC1 [RU-I2]	significant inhibition	–
CN(Cc1nccn1Cc1c(F)cccc1Cl)C(=O)C1CCCC1 [RU-I5]	significant inhibition	–
CCN(CC)C(=O)c1cccc(C)c1 [DEET, N,N-diethyl-m-toluamide, reference compound]	–	suppression of 3MTP attraction (Drosophila melanogaster; range of 1 mg to 10 mg): significant suppression
